The nature of the data set: Compatibility with other active ingredients, especially formoterol. In kind it is physicochemical. The note with it: versus glycopyrronium bromide.

The structures appear in SMILES notation.

As to `C[N+]1(C)CCC(OC(=O)C(O)(c2ccccc2)C2CCCC2)C1.[Cl-]` (stereo not shown) [glycopyrronium chloride, 3-[(cyclopentylhydroxyphenylacetyl)oxy]-1,1-dimethylpyrrolidinium chloride], the “compatibility with other active ingredients” value was “better compatibility with other active ingredients”.

Values taken from patent US20140363383A1, “AEROSOL FORMULATION FOR COPD” (Chiesi Farmaceutici S.p.A, priority 2009, published 2014).
